The values below come from patent US4711890A, “Pharmaceutical compositions containing azanaphthalene-carboxamide derivatives, azanaphthalene-carboxamide derivatives and process for their use” (Rhone-Poulenc Sante, priority 1982, dated 1987).

Assay [1] concerns the target T1, peripheral-type receptor sites for benzodiazepines (Rattus norvegicus, UniProt P16257).
T1 construct: on rat kidney membranes; from tissue; host or cells: rat kidney membranes
In words: Affinity for the peripheral-type receptor sites for benzodiazepines: displacement of 3H-diazepam on rat kidney membranes. Format: binding. To be noted: for Ki: rat kidney membranes, 3H-diazepam displacement. The protocol: The affinity of the compounds of formula (I) for the peripheral-type receptor sites was determined, using the procedure of BRAESTRUP et al., Proc. Natl. Acad. Sci. U.S.A., 1977, 74, 3805, on rat kidney membranes.
(Displacement assays read how much labelled ligand stays bound in the presence of the test substance.)

Assay [2] has as its target cerebral receptor sites for benzodiazepines. As to the kind of experiment: Affinity for the cerebral-type receptor sites for benzodiazepines: displacement of 3H-diazepam on rat brain membranes. Format: binding. To be noted: 3H-diazepam displacement. The protocol:
The affinity of the compounds of formula (I) for the cerebral receptor sites for benzodiazepines was determined, by the method of MOHLER et al, Life Sciences, 1977, 20, 2101, on rat brain membranes.

The subject of assay [3] is binding sites for [^3 H] diazepam in the kidneys. To be noted: kidneys / peripheral level, [3H] diazepam sites; cited from earlier work.
Assay [4] relates to binding sites for [^3 H] diazepam in the brain. To be noted: [3H] diazepam sites; cited from earlier work.
For assay [5] the following is noted: GHAZAL et al., Egypt. Pharm. Bull., 1960, 42, 465; cited from earlier work.

For `CCN(CC)C(=O)c1cc(-c2ccccc2)cc2ccccc12` [Example 20, N,N-diethyl-3-phenylnaphthalene-1-carboxamide], the “preferential action on peripheral receptors (versus cerebral)” value in assay [1] (peripheral versus cerebral benzodiazepine receptors) is on record as “act preferentially on peripheral receptors”. In assay [1], this compound returned a Ki of 2 nM.
Consider `O=C1CCN(C(=O)c2nc(-c3ccccc3)nc3ccccc23)CC1` [Example 53, 1-[(2-phenylquinazolin-4-yl)-carbonyl]-piperidin-4-one], for which, in assay [2], the affinity, expressed as Ki, was 270 nM.
`CCN(CC)C(=O)c1cc(-c2ccc(F)cc2)nc2ccccc12` [Example 10, N,N-diethyl-2-(4-fluorophenyl)-quinoline-4-carboxamide]: the results for the Ki in assay [1] and in assay [2] were 160 nM and 210 nM, respectively.
In assay [2], `O=C(c1cc(-c2ccccc2)nc2ccccc12)N1CCOCC1` [Example 5, 4-(2-phenylquinolin-4-yl)-carbonylmorpholine] gave an inhibition constant (Ki) of 90 nM.
With `O=C(c1cc(-c2ccccn2)nc2ccccc12)N1CCCCC1` [Example 3, 1-[2-(pyridin-2-yl)-quinolin-4-yl]-carbonylpiperidine], the Ki in assay [2] is 160 nM.
For `CCN(CC)C(=O)c1cc(-c2ccccc2Cl)nc2ccccc12` [Example 8, N,N-diethyl-2-(2-chlorophenyl)-quinoline-4-carboxamide], the inhibition constant Ki in assay [1] was determined as 117 nM.
The same measure, in the same setting: the result for `CCC(C)N(C)C(=O)c1cc(-c2ccccc2)cc2ccccc12` (stereo not drawn) [Example 21, N-methyl-N-(1-methylpropyl)-3-phenylnaphthalene-1-carboxamide] reads 58 nM.
Same read-out and setting: the result for `CCC(C)N(C(=O)c1cc(-c2ccccc2Cl)nc2ccccc12)C(C)CC` (stereo not drawn) [Example 16, N,N-di-(1-methylpropyl)-2-(2-chlorophenyl)-quinoline-4-carboxamide] reads 72 nM; that for `CCC(C)N(C)C(=O)c1nc(-c2ccccc2)cc2ccccc12` (stereo not drawn) [Example 51, N-methyl-N-(1-methylpropyl)-3-phenylisoquinoline-1-carboxamide], 45 nM; that for `CC1CCCC(C)N1C(=O)c1cc(-c2ccccc2Cl)nc2ccccc12` (stereo not drawn) [Example 39, 1-{[2-(2-chlorophenyl)-quinolin-4-yl]-carbonyl}-2,6-dimethylpiperidine], 54 nM.
For the compound `CN1C(=O)CN=C(c2ccc(Cl)cc2)c2cc(Cl)ccc21` [Ro-5-4864, 7-chloro-5-(p-chlorophenyl)-1,3-dihydro-1-methyl-2H-1,4-benzodiazepin-2-one], the “affinity / activity at kidney (peripheral) binding sites, in words” value in assay [3] is listed as “very active”. For the same compound, in assay [4], the “affinity / activity at brain (central) binding sites, in words” value is “inactive”.
The compound `CCC(C)N(C)C(=O)c1cc(-c2ccccc2Cl)nc2ccccc12` (stereo not drawn) [Example 15, N-methyl-N-(1-methylpropyl)-2-(2-chlorophenyl)-quinoline-4-carboxamide] returned a Ki in assay [1] of 31 nM.
On to `CCN(CC)C(=O)c1cc(-c2ccc(C)cc2)nc2ccccc12` [Example 24, N,N-diethyl-2-(4-methylphenyl)-quinoline-4-carboxamide], for which the affinity in assay [2] corresponds to a Ki of 330 nM.
In assay [2], `O=C(c1nc(-c2ccccc2)nc2ccccc12)N1CCCC1` [Example 26, 1-[(2-phenylquinazolin-4-yl)-carbonyl]-pyrrolidine] showed an inhibitory constant (Ki) of 90 nM.
On to `O=C1CN=C(c2ccccc2Cl)c2cc([N+](=O)[O-])ccc2N1` [clonazepam], for which the “affinity / activity at kidney (peripheral) binding sites, in words” value in assay [3] is “virtually inactive”. The “affinity / activity at brain (central) binding sites, in words” value in assay [4] was “very strong affinity”.
Compound `CCC(C)N(C)C(=O)c1cc(-c2ccccc2)nc2ccccc12` (stereo not drawn) [Example 43, N-methyl-N-(1-methylpropyl)-2-phenylquinoline-4-carboxamide] yielded a Ki in assay [1] of 100 nM.
Consider `O=C(c1cc(-c2ccccc2)nc2ccccc12)N1CCCC1` [Example 11, 1-(2-phenylquinolin-4-yl)-carbonylpyrrolidine], for which, in assay [2], the Ki was found to be 130 nM.
For `O=C(c1cc(-c2ccccc2)nc2ccccc12)N1CCCCC1` [Example 4, 1-(2-phenylquinolin-4-yl)-carbonylpiperidine], affinity in assay [2] was put at a Ki of 40 nM.
Turning to `O=C(c1cc(-c2ccccc2Cl)nc2ccccc12)N1CCCCC1` [Example 18, 1-[2-(2-chlorophenyl)-quinolin-4-yl]-carbonylpiperidine], in assay [1], the Ki turned out to be 360 nM.
`CCN(CC)C(=O)c1cc(-c2ccccc2F)nc2ccccc12` [Example 38, N,N-diethyl-2-(2-fluorophenyl)-quinoline-4-carboxamide]: the inhibitory constant (Ki) in assay [2] was determined as 310 nM.
In assay [1], `CCC(C)N(CC)C(=O)c1cc(-c2ccccc2Cl)nc2ccccc12` (stereo not drawn) [Example 17, N-ethyl-N-(1-methylpropyl)-2-(2-chlorophenyl)-quinoline-4-carboxamide] yielded a Ki of 9 nM.
Turning to `CNC1=Nc2ccc(Cl)cc2C(c2ccccc2)=[N+]([O-])C1` [Chlorodiazepoxide, reference compound], the Ki in assay [2] turned out to be 80 nM.
In the case of `CCN(CCC1CCNCC1)C(=O)c1cc(-c2ccccc2)nc2ccccc12` [Example 49, N-ethyl-N-[2-(piperidin-4-yl)-ethyl]-2-phenylquinoline-4-carboxamide], in assay [2], the affinity corresponds to a Ki of 400 nM.
As to `CCN(CC)C(=O)c1nc(-c2ccccc2Cl)nc2ccccc12` [Example 22, N,N-diethyl-2-(2-chlorophenyl)-quinazoline-4-carboxamide], in assay [1], the affinity, expressed as Ki, was 270 nM.
As to `CCN(CC)C(=O)c1cc(-c2ccccc2)nc2ccccc12` [Example 1, N,N-diethyl-2-phenylquinoline-4-carboxamide], the “pharmacological properties described in the literature” value in assay [5] was “uricosuric and anti-pyretic properties”. The compound also came in with a Ki in assay [2] of 50 nM.
As to `O=C(c1nc(-c2ccccc2)nc2ccccc12)N1CCCCC1` [Example 27, 1-[(2-phenylquinazolin-4-yl)-carbonyl]-piperidine], in assay [2], the affinity, expressed as Ki, was 70 nM.
Same read-out and setting: the figure for `CCN(CC)C(=O)c1nc(-c2ccccc2)nc2ccccc12` [Example 25, N,N-diethyl-2-phenylquinazoline-4-carboxamide] is 390 nM.
On to `CCN(CC)C(=O)c1cc(-c2ccc(Cl)c(Cl)c2)nc2ccccc12` [Example 37, N,N-diethyl-2-(3,4-dichlorophenyl)-quinoline-4-carboxamide], for which, in assay [1], the inhibition constant Ki amounted to 117 nM.

Usually Ki stands for a dissociation constant, usually derived from enzyme kinetics or from competition with a known ligand.
